One compound from patent publication US20050239735A1, “Enhancement of immune responses” (3M Innovative Properties Company, priority 2003, published 2005) can be followed below.

Structures are written as SMILES.

Test [1] concerns adherent cells from human PBMC. Put plainly: Type I IFN production by adherent cells from human PBMC, virus neutralization bioassay of supernatants. It is filed as cell-based. The protocol: (§1) The amount of Type I interferon (IFN) and tumor necrosis factor-α (TNF-α) produced by the cells in response to the treatment is also recorded in Table I.
(§2) Briefly, adherent cells from human PBMC were treated with 1-100 U/mL recombinant IFN-α (Lee BioMolecular, San Diego, Calif.) for 24 hours, washed, and then treated with IRM (a concentrated solution of IRM in cell culture medium was added to reach the final concentration indicated in Table I) for an additional 24 hours. A separate group of control cells were treated only with IRM for 24 hours. Cell-free supernatants were then isolated from all of the cultures and analyzed for Type I IFN or TNF-α.
(§3) Type I IFN production was assayed using a virus neutralization bioassay using A549 human lung carcinoma cells challenged with encephalomyocarditis. The details of the bioassay method have been described by G. L. Brennan and L. H. Kronenberg in “Automated Bioassay of Interferons in Micro-test Plates”, Biotechniques, June/July, 78, 1983, incorporated herein by reference. Briefly stated the method is as follows: A549 cells are incubated with dilutions of samples or a standard interferon at 37° C. for 24 hours. The incubated cells are then infected with an inoculum of encephalomyocarditis virus. The infected cells are incubated for an additional 24 hours at 37° C. before evaluating for viral cytopathic effect. The viral cytopathic effect is quantified by staining with crystal violet followed by visual scoring of the plates. Results are expressed as IFN-α reference units/mL based on the value obtained for NIH Human Leukocyte IFN standard. TNF-α production was determined by ELISA (Biosource International, Inc., Camarillo, Calif.).
(§4) Adherent cells are obtained and prepared as described in Example 1. The cells are pre-treated as described in Example 1 with either poly(I:C), recombinant IFN-γ, recombinant IFN-α, or receive no pre-treatment. The cells are washed as described in Example 1, then treated as described in Example 1 with either IRM1, IRM2, IRM3, IRM4, IRM5, IRM6, IRM7, IRM8, or IRM9 for 24 hours.
(§5) Cell free supernatants are isolated from all of the cultures and analyzed for Type I IFN or TNF-α.

Test [2] relates to adherent cells from human PBMC. Description: TNF-α production by adherent cells from human PBMC, ELISA of supernatants. It is filed as cell-based. The protocol:
as §1, §2, §3, §4, §5

Setting [3] is: IRM1 0.3 μM for 24 hours after pre-treatment with 1-100 U/mL recombinant IFN-α for 24 hours, washed.
Where [4] appears, read: IRM1 0.3 μM for 24 hours, no pre-treatment.
Where [5] appears, read: IRM1 3.0 μM for 24 hours after pre-treatment with 1-100 U/mL recombinant IFN-α for 24 hours, washed.
[6] abbreviates: IRM1 3.0 μM for 24 hours, no pre-treatment.

As to `Cc1nc2c(N)nc3ccccc3c2n1CC(C)(C)O` [IRM1, 4-amino-α,α,2-trimethyl-1H-imidazo[4,5-c]quinoline-1-ethanol], the IFN-α is on record as 3,788 U/mL in test [1] (setting [3]), 5 U/mL in test [1] (setting [4]), 3,788 U/mL in test [1] (setting [5]) and 5 U/mL in test [1] (setting [6]). Moreover, the TNF-α is 114 pg/mL in test [2] (setting [3]), 437 pg/mL in test [2] (setting [4]), 284 pg/mL in test [2] (setting [5]) and 3295 pg/mL in test [2] (setting [6]).
